Like-named read-outs stand apart in the source and are kept apart here.
What was measured:
[1] = most stable at a pH range; cited from earlier work
[2] = format: physicochemical; conditions: for amount dissolved: ethanol
Description: The critical features of the solubility of metronidazole, [1-(2-hydroxyethyl)-2-methyl-5-nitroimidazole] are evident from FIGS. 1 through 6.
It is observed that the optimum solubility in water-ethanol mixtures occur at about 80% ethanol.
It is considered desirable to maintain N,N-dimethylacetamide concentrations in any formulation at a relatively low level. In FIG. 2, it is shown that 20% N,N-dimethylacetamide is not a suitable solvent system in combination with water or ethanol alone. Those satisfied with less desirable formulation could use a solvent system of 20% N,N-dimethylacetamide, 40% water, and 40% ethanol. […] One would also believe this for combinations of 30% N,N-dimethylacetamide and water and ethanol.
It can be observed from FIG. 3 that, unexpectedly, a solvent system of 30% N,N-dimethylacetamide in combination with the indicated proportions of ethanol and water solubilizes more than 500 mg./10 ml. of metronidazole.
Also, unexpectedly, FIGS. 4, 5 and 6 illustrate that the combination of ethanol, water and N,N-dimethylacetamide can be made to dissolve more than 500 mg. of metronidazole by the addition of nicotinamide, propylene glycol or 2,2-dimethyl-1,3-dioxolane-4-methanol. These systems have the advantages of an even lower percentage composition of N,N-dimethylacetamide. Optimum systems and the solubility of metroinidazole therein are illustrated in Table 1.

[3] = water; cited from earlier work

Cc1ncc([N+](=O)[O-])n1CCO [metronidazole, 1-(2-hydroxyethyl)-2-methyl-5-nitroimidazole]
pH range of greatest stability [1]: 5.0-7.5 | ethanol content at optimum solubility in water-ethanol mixtures [2]: about 80% | solubility [2]: more than 500 mg./10 ml. | amount dissolved ([2]; water and N,N-dimethylacetamide with addition of 2,2-dimethyl-1,3-dioxolane-4-methanol (FIG. 5)): more than 500 mg. | amount dissolved ([2]; water and N,N-dimethylacetamide with addition of nicotinamide (FIG. 6)): more than 500 mg. | amount dissolved ([2]; water and N,N-dimethylacetamide with addition of propylene glycol (FIG. 4)): more than 500 mg. | aqueous solubility [3]: about 100 mg./10 ml.
